Assay results: US20180140694A1, “DOSAGE REGIMEN FOR HIV VACCINE” (priority 2015, published 2018)

Tests used:
[1] = test system: HIV-1 transcription in CD4+ T cells; experiment: Cell associated unspliced HIV-1 RNA in CD4+ T cells by droplet digital PCR (REDUC); assay type: in vivo; conditions: REDUC Part A
Method: Unspliced HIV-1 RNA (copies per 10^6 CD4+ T cells): HIV transcription was measured as copies of cell-associated unspliced HIV-1 RNA/106 CD4+ T cells using digital droplet PCR.
HIV transcription was measured as copies of cell-associated unspliced HIV-1 RNA/106 CD4+ T cells using digital droplet PCR. CD4+ T-cells were isolated from PBMCs using Miltenyi Biotec negative bead separation kit (CD4 T cell isolation, #130-096-533) as described with LD separation columns, lysed (Lysis buffer from Qiagen DNA/RNA extraction kit), and stored ad −80° C. until extraction of RNA and DNA (Allprep isolation kit, Qiagen). Reverse transcription, amplification and quantitation of cell-associated unspliced HIV RNA from HIV patients was performed as follows. In summary, HIV unspliced RNA was detected on the BioRad QX100 droplet digital platform using a defined primer/probe set and related to total cell input by quantitation of the IPO8 (Importin 8) and TBP (Tata Binding Protein) gene transcription. […] After cycling droplets were subsequently read automatically by the QX100 droplet reader (BioRad) and the data was analyzed with the QuantaSoft™ analysis software (BioRad). On average, the six HIV replicates generated 80,000-98,000 droplets to be analyzed per time point.

[2] = Safety and tolerability evaluation in REDUC trial (adverse events); assay type: in vivo, human
Description: The primary endpoint of Part A was safety and tolerability; evaluation as measured by adverse events (AE), adverse reactions (AR), serious adverse events (SAE), serious adverse reactions (SAR), serious unexpected adverse reactions (SUSAR).
The primary endpoint of Part B was firstly, safety and tolerability evaluation as measured by adverse events (AE), adverse reactions (AR), serious adverse events (SAE), serious adverse reactions (SAR), serious unexpected adverse reactions (SUSAR) and dose-limiting toxicity.

[3] = test system: Plasma HIV-1 RNA; conditions: REDUC Part A
Method: Plasma HIV RNA, quantitative viral load: Measured by Roche VL (routine clinical assay).
(§1) Plasma HIV RNA, quantitative viral load, was measured by Cobas® TaqMan® HIV-1 Test, v2.0 (Roche) according the manufacturer's instruction (routine clinical assay). The lower limit of quantification for this assay is 20 copies HIV-1 RNA/mL, but it provides a qualitative assessment below this.

[4] = test system: latent HIV-1 reservoir in CD4+ T cells; experiment: Total HIV-1 DNA per 10^6 CD4+ T cells by droplet digital PCR (REDUC); assay type: in vivo; conditions: REDUC Part A, romidepsin infusions without preceding vaccination
Description: Total HIV-1 DNA (copies per 10^6 CD4+ T cells): Total HIV DNA quantifies integrated and non-integrated DNA as well as latent and defective virus. There is a strong correlation between total HIV DNA and integrated HIV DNA in patients on cART and therefore cell-associated HIV DNA is likely to be a good surrogate marker of the total number of latently infected cells [Koelsch 2008].
For HIV-1 DNA quantifications, CD4 T cells were isolated using a CD4+ T Cell Isolation Kit Miltenyi biotec, cat no 130-096-533) on LS columns (Miltenyi biotec, cat no 130-042-401). After CD4 T isolation, cells were resuspended in lysis buffer and digested as previously described [Chomont, 2009 Nat Med, 15(8): 893-900]. Cell lysates were used directly for HIV-1 DNA quantifications using the QX100™ Droplet Digital™ PCR system (Bio-Rad) to determine the absolute levels of total HIV-1 DNA per 106 CD4+ T cells [Strain et al 2013 PLOS One].

[5] = test system: Histone H3 acetylation in lymphocytes; experiment: Histone H3 acetylation in lymphocytes by flow cytometry (REDUC); assay type: in vivo, human; conditions: REDUC Part A, following each romidepsin administration, 5 mg/m^2
Method: Histone H3 acetylation: Measured in lymphocytes using flow cytometry with intracellular cytokine stain on fresh isolated PBMCs.
Histone H3 acetylation was measured in lymphocytes using flow cytometry with intracellular cytokine staining on fresh isolated PBMCs. Freshly isolated PBMC's were fixated, permeabilised and stained with acetylation-specific antibodies, providing the possibility to evaluate epigenetic modifications on Histones (Rigby L, Muscat A, Ashley D, Algar E. Epigenetics 2012; 7(8):875-882). Briefly, PBMCs (1×10^6) were resuspended in 3 ml ice-cold PBS/1% FBS and centrifuged, then vortexed to dissolve pellet and fixative added, 100 μl 2% PFA (ice-cold), vortexed briefly and incubated on ice for 15 min. Cells were then washed in 4 ml PBS, resuspended in 200 μl PBS and stored at 4° C. until staining. Samples were washed with 3 ml FACS buffer and vortexed to dissolve cell pellet prior to adding 100 μl 0.2% Triton X-100, vortexed briefly and incubated for 10 min. at room temperature (RT). Samples were then washed with FACS buffer, 600 μl Block (PBS/10% FBS) was added, sample vortexed to resuspend cell pellet and incubated for 20 min at RT. […] Finally, samples were washed with FACS buffer and resuspended in 80 μl PBS and analyzed by FACS (50 000 events, anti-acetyl histone H3 Median Fluorescence Intensity, MFI, calculated by subtracting background MFI from isotype control).

[6] = test system: Plasma HIV-1 RNA; experiment: Plasma HIV-1 RNA by transcription mediated amplification (NAT screen, PROCLEIX ULTRIO Plus); assay type: in vivo; conditions: REDUC Part A
Method: Plasma HIV-1 RNA detection by NAT screen: Measured by a transcription mediated amplification (TMA)-based methodology, usually referred to as a nucleic acid test (NAT)-screen (PROCLEIX ULTRIO Plus, Genprobe).
as §1, with “this. Plasma HIV-1 RNA was also measured by a transcription mediated amplification (TMA)-based methodology, usually referred to as a nucleic acid test (NAT)-screen (PROCLEIX ULTRIO Plus, Genprobe), according to manufacturer's instructions.” for “this.”

[7] = REDUC Part A, romidepsin 5 mg/m^2, 6 patients

With `C/C=C1\NC(=O)[C@H]2CSSCC/C=C/[C@H](CC(=O)N[C@H](C(C)C)C(=O)N2)OC(=O)[C@H](C(C)C)NC1=O` [romidepsin, (1S,4S,7Z,10S,16E,21R)-7-ethylidene-4,21-bis(1-methylethyl)-2-oxa-12,13-dithia-5,8,20,23-tetraazabicyclo[8.7.6] tricos-16-ene-3,6,9,19,22-pentone] the “cell-associated un-spliced HIV RNA as a result of romidepsin infusion” value [1] was “significantly increased”, the “cell-associated un-spliced HIV-1 RNA, fold range from baseline” value ([1]; after third infusion) was 2.4-5.0 fold and the adverse event grade [2, 7] was “most adverse events (AEs) were of grade 1”. For the same molecule, the serious adverse events [2, 7] was “No serious adverse events were observed”, the “adverse events considered related to the agent” value ([2]; REDUC Part B, of 141 in total) was 57 adverse events and the “extracellular HIV RNA as a result of romidepsin infusion” value [3] was “significantly increased”. The “patients with plasma HIV-1 RNA increased to readily quantifiable levels” value ([3]; multiple post-infusion time-points) was 5 of 6 patients, the “plasma HIV-1 RNA” value ([3]; range following the second infusion, <20 copies/mL at baseline) was 46-103 copies/mL and the “size of the latent reservoir” value [4] was “not affected”. For the same molecule, the “Lymphocyte histone H3 acetylation, maximum fold range relative to baseline” value [5] was 3.7-7.7 fold and the “Plasma HIV-1 RNA detection by transcription-mediated amplification assay, post-infusion versus baseline” value [6] was “detected more frequently”.
